Results from EP0054593A1, “Myocardium protecting pyrrole derivatives with anti-arythmic and anti-platelet aggregation activity, process for their preparation and medicines containing them” (SANOFI S.A., priority 1980, dated 1982).
Like-named read-outs stand apart in the source and are kept apart here.

Key:
[1] = system: agrégation plaquettaire induite par le collagène; assay: In vitro collagen-induced platelet aggregation in platelet-rich plasma (Born turbidimetric technique); assay type: cell-based, humain; details: for IC50: 10 min; for inhibition at 100 µM: concentration 100 µM, inhibition of maximal aggregation amplitude versus control, read-out: % d'inhibition
From the text: (§1) Les études in vitro et ex vivo de l'activité antiagrégante ont été réalisées selon la technique turbidiurétrique de Born.
Les études in vitro ont été réalisées sur du plasma riche en plaquettes (PRP) préparé à partir de sang veineux humain.
Les diverses solutions des produits à tester ont été préparées extemporanément. Les CM 7753, 7611, 7640, 7921, 7954, - 40018, 40020 ont été dissous à une concentration de 2 x 10^-2 M dans l'acétone.
Des solutions aqueuses à 2 x 10 ^-3 M ont été préparées pour les CM 40169, 40178, 2 µl des solutions acétoniques des produits ou 40 µl des solutions aqueuses sont incubés pendant 10 min à 37°C avec, respectivement, 388 et 350 µl de PRP. Après cette période d'incubation, 10 µl de la solution de collagène à 40 µg/ml sont additionnés. Pour les contrôles, 2 µl d'acétone ou 40 µl d'eau distillée sont utilisés.
(§2) L'agrégation plaquettaire a été quantifiée par la détermination graphique de l'amplitude maximale d'agrégation (AM).
(§3) Les résultats sont exprimés en % d'inhibition de ce paramètre calculé par rapport au contrôle (100 % d'agrégation). Résultats

[2] = system: tachycardie ventriculaire; assay: Ventricular arrhythmia model: coronary metal coil, myocardial infarction, telemetered ECG; assay type: in vivo, chiens; details: 50 mg/kg P.O., dogs; for Effet sur la tachycardie ventriculaire: rythme sinusal ou amélioration: sinus rhythm restored or improvement of the ratio of abnormal to sinus complexes
From the text: Le pouvoir antiarythmique de ces molécules a été apprécié sur un modèle animal d'arythmie ventriculaire.
Des chiens bâtards sont anesthésiés puis soumis à la mise en place, par cathétérisme rétrograde, d'une spire métallique dans le lit coronarien. Dans le même temps, un micro-émetteur modulateur de fréquence est fixé au dos de l'animal et relié à deux électrodes précordiales.
L'animal remis dans son box accuse alors une thrombose progressive de l'artère interventriculaire antérieure. Ainsi, se constitue un infarctus myocardique localisé et transmural, générateur d'une activité électrique anormale, mais répétitive : tachycardie ventriculaire.
Dans cet état, les drogues sont administrées per os (P.O.) et le système télémétré permet de suivre en temps réel l'évolution de la disrythmie.
Un comptage des complexes systoliques sinusaux et pathologies est assuré en permanence par des procédés électroniques.
Ainsi, peut-on quantifier la qualité et la durée d'action du produit.
L'activité des produits essayés sur la tachycardie ventriculaire est exprimée soit par le rétablissement du rythme sinusal, soit par une amélioration notable du rapport : • nombre de complexes anormaux
nombre de complexes sinusaux

ADP = assay: Ex vivo ADP-induced platelet aggregation after oral dosing (Born technique); assay type: in vivo, babouin; details: baboons, 50 mg/kg/j oral
Procedure: as §1
(§4) Les études ex vivo chez le babouin ont porté uniquement sur l'activité antiagrégante du CM 7753. Dans ce cas, le CM 7753 est administré par voie buccale à raison de 50 mg/kg/j pendant une période de 5 jours.
(§5) Les prélèvements sanguins pour l'analyse de l'agrégation plaquettaire ont été effectués avant l'administration du produit, 2 h après l'administration de 50 mg/kg au jour 1 et 2 h après la dernière administration au jour 5.
as §2, §3

[3] = system: agrégation plaquettaire induite par le collagène; assay: Ex vivo collagen-induced platelet aggregation after oral dosing (Born technique); assay type: in vivo, babouin; details: Papio, 120 h, four baboons, 50 mg/kg/j oral, after 5 days of treatment, read-out: % d'inhibition
Procedure: as §1, §4, §5, §2, §3

In the case of `CC(C)N(CCC(C(N)=O)(c1ccccc1)n1cccc1)C(C)C` (stereo not drawn) [CM 7611, Phényl-2 (pyrrolyl-l)-2 diisopropylamino-4 butyramide], the IC50 [1] is reported as roughly 30 µM and the “Effet sur la tachycardie ventriculaire: rythme sinusal ou amélioration” value [2] is reported as 70-90%.
With `Cc1ccc(C)n1C(CCN(C(C)C)C(C)C)(C(N)=O)c1ccccc1` (stereo not drawn) [CM 7640] the IC50 [1] was roughly 30 µM, the “Effet sur la tachycardie ventriculaire: duration of effect” value [2] was “Rythme sinusal ou amélioration à 90 % durant 90 min” and the “Effet sur la tachycardie ventriculaire: rythme sinusal ou amélioration” value [2] was “Rythme sinusal ou amélioration à 90 % durant 90 min”.
For `Cc1ccc(C)n1C(CCN(C(C)C)C(C)C)C(N)=O` (stereo not drawn) [CM 7753, (Diméthyl-2,5 pyrrolyl-1)-2 diisopropylamino-4 butyramide], the “activité antiagrégante vis-à-vis de l'ADP” value (ADP) was “activité antiagrégante de moindre importance”, the inhibition at 50 mg/kg [3] was 100% and the IC50 ([1]; human PRP, 10 min incubation at 37°C, collagen, approximate value, read-out: concentration qui inhibe à 50 % l'agrégation plaquettaire) was roughly 100 µM. The “Effet sur la tachycardie ventriculaire: rythme sinusal ou amélioration” value [2] was 90%.
`CC(C)N(CCC(C(N)=O)n1cccc1)C(C)C` (stereo not drawn) [CM 7921] showed an inhibition at 100 µM ([1]; human PRP, collagen) of 20 to 30%.
Work on `CC(C)N(CCC(C(N)=O)(c1ccccn1)n1cccc1)C(C)C` (stereo not drawn) [CM 7954, (Pyridyl-2)-2 (pyrrolyl-l)-2 diisopropylamino-4 butyramide] yielded an IC50 ([1]; read-out: concentration qui inhibe à 50 % l'agrégation plaquettaire) of roughly 100 µM.
In the case of `Cc1ccc(C)n1C(CCN1CCN2CCCC2C1)C(N)=O` (stereo not drawn) [CM 40018, (Diméthyl-2,5 pyrrolyl)-1 (diaza-1,4 bicyclo[4.3.0]-nonyl-4)-4 butyramide], the inhibition at 100 µM ([1]; human PRP, collagen) is reported as 20 to 30%.
In the case of `CCc1ccc(CC)n1C(CCN(C(C)C)C(C)C)C(N)=O` (stereo not drawn) [CM 40020], the inhibition at 100 µM ([1]; human PRP, collagen) is reported as 20 to 30%.
For `Cc1ccc(C)n1C(CCN(C(C)C)C1CCCCC1)C(N)=O` (stereo not drawn) [CM 40169], the inhibition at 100 µM ([1]; human PRP, collagen) was 20 to 30%.
With `CCC(C)N(CCC(C(N)=O)n1c(C)ccc1C)C(C)CC` (stereo not drawn) [CM 40178] the inhibition at 100 µM ([1]; human PRP, collagen) was 20 to 30%.
